In brackets after ≈: the same amount, converted by molar mass. Activity calls are given as the source filed them. The calls are words filed in the database; no cut-off is given here.
Columns and labels:
Type in all cases: functional
[1] = system: Mycobacterium tuberculosis; experiment: Antimicrobial activity against clinical isolate Rifampin-resistant Mycobacterium tuberculosis assessed as growth inhibition after 7 days by turbidometry; details: 168 h
[2] = system: Mycobacterium tuberculosis; experiment: Antimicrobial activity against clinical isolate Isoniazid-resistant Mycobacterium tuberculosis assessed as growth inhibition after 7 days by turbidometry; details: 168 h
[3] = system: Mycobacterium tuberculosis; experiment: Antimicrobial activity against Mycobacterium tuberculosis H37Rv over-expressing InhA cells assessed as upshift of MIC relative to wild type
[4] = system: Mycobacterium tuberculosis; experiment: Antimicrobial activity against first mutant generation Mycobacterium tuberculosis 1024_1 assessed as fold shift in MIC relative to parent strain
[5] = system: Mycobacterium tuberculosis; experiment: Antimicrobial activity against first mutant generation Mycobacterium tuberculosis 1024_18 assessed as fold shift in MIC relative to parent strain
[6] = system: Mycobacterium tuberculosis; experiment: Antimicrobial activity against second mutant generation Mycobacterium tuberculosis 1024_8.12 assessed as fold shift in MIC relative to parent strain
[7] = system: Mycobacterium tuberculosis; experiment: Antimicrobial activity against second mutant generation Mycobacterium tuberculosis 1024_16.6 assessed as fold shift in MIC relative to parent strain
[8] = system: Mycobacterium tuberculosis; experiment: Antimicrobial activity against second mutant generation Mycobacterium tuberculosis 1024_18 assessed as fold shift in MIC relative to parent strain
[9] = system: Mycobacterium tuberculosis; experiment: Antimicrobial activity against second mutant generation Mycobacterium tuberculosis 1024_16.5 assessed as fold shift in MIC relative to parent strain

SMILES: CCCc1cc(-c2nc(-c3ccc(NS(C)(=O)=O)cc3)cs2)ccn1
- MIC80 [1]: 0.13 µg/mL (≈ 0.348 µM)
- MIC80 [2]: 0.5 µg/mL (≈ 1.34 µM)

SMILES: CCCc1cc(-c2csc(-c3ccnc(CCC)c3)n2)ccn1
- Activity [3]: Active

SMILES: CC(=O)NC[C@H]1CN(c2ccc(N3CCOCC3)c(F)c2)C(=O)O1 [LINEZOLID]
- Ratio [4]: 1
- Ratio [5]: 1

SMILES: CO[C@H]1/C=C/O[C@@]2(C)Oc3c(C)c(O)c4c(O)c(c(/C=N/N5CCN(C)CC5)c(O)c4c3C2=O)NC(=O)/C(C)=C\C=C\[C@H](C)[C@H](O)[C@@H](C)[C@@H](O)[C@@H](C)[C@H](OC(C)=O)[C@@H]1C [RIFAMPIN]
- MIC80 [1]: > 16 µg/mL
- Ratio [4]: 0.5
- Ratio [5]: 0.5
- MIC80 [2]: 0.003 µg/mL (≈ 0.00365 µM)

SMILES: CCCc1cc(-c2nc(-c3ccc(OCCN4CCOCC4)cc3)cs2)ccn1
- MIC80 [1]: 0.5 µg/mL (≈ 1.22 µM)
- Ratio [6]: 8
- Ratio [7]: >8
- MIC80 [2]: 1 µg/mL (≈ 2.44 µM)
- Ratio [8]: 8
- Ratio [9]: 4

SMILES: CCCc1cc(-c2nc(-c3ccncc3)cs2)ccn1
- Activity [3]: Active
- Ratio [6]: 8
- Ratio [7]: 16
- Ratio [4]: 16
- Ratio [5]: 8
- Ratio [8]: 8
- Ratio [9]: 16

SMILES: CCCc1cc(-c2nc(-c3ccccn3)cs2)ccn1
- Activity [3]: Active

SMILES: CCCc1cc(-c2nc(-c3ccc(OCC4CC4)cc3)cs2)ccn1
- MIC80 [1]: 0.13 µg/mL (≈ 0.371 µM)
- MIC80 [2]: 1 µg/mL (≈ 2.85 µM)

SMILES: CCCc1cc(-c2nc(-c3cccc(OC)c3)cs2)ccn1
- MIC80 [1]: 0.5 µg/mL (≈ 1.61 µM)
- MIC80 [2]: 1 µg/mL (≈ 3.22 µM)

SMILES: COc1nc2ccc(Br)cc2cc1[C@@H](c1ccccc1)[C@@](O)(CCN(C)C)c1cccc2ccccc12 [BEDAQUILINE]
- Ratio [6]: 0.25
- Ratio [7]: 0.5
- Ratio [4]: 1
- Ratio [5]: 0.5
- Ratio [8]: 0.25
- Ratio [9]: 0.5

SMILES: NNC(=O)c1ccncc1 [ISONIAZID]
- fold change (FC) [3]: 8
- MIC80 [1]: 0.03 µg/mL (≈ 0.219 µM)
- Ratio [6]: 1
- Ratio [7]: 1
- Ratio [4]: 1
- Ratio [5]: 1
- MIC80 [2]: > 16 µg/mL
- Ratio [8]: 1
- Ratio [9]: 1

SMILES: Oc1cc(Cl)ccc1Oc1ccc(Cl)cc1Cl [TRICLOSAN]
- fold change (FC) [3]: 8

SMILES: COc1c(N2C[C@@H]3CCCN[C@@H]3C2)c(F)cc2c(=O)c(C(=O)O)cn(C3CC3)c12 [MOXIFLOXACIN]
- Ratio [6]: 1
- Ratio [7]: 1
- Ratio [4]: 1
- Ratio [5]: 1
- Ratio [8]: 0.5
- Ratio [9]: 1

SMILES: CCCc1cc(-c2nc(-c3ccc(C)cc3)cs2)ccn1 [FATOSTATIN]
- Activity [3]: Active
- Ratio [6]: 16
- Ratio [7]: >32
- Ratio [4]: 8
- Ratio [5]: 16
- Ratio [8]: 16
- Ratio [9]: 16

SMILES: CCc1cc(C(N)=S)ccn1 [ETHIONAMIDE]
- fold change (FC) [3]: 8

SMILES: CCCc1cc(-c2nc(-c3ccnc(OCC)c3)cs2)ccn1
- Activity [3]: Active
